≈ marks a conversion by molar mass, not a printed value. Read-outs that look alike come from different tables or passages of the source.
Assays:
Experiment in all cases: in vitro anti-bacterial activity, two-fold agar plate dilution method
Format in all cases: cell-based
[1] = tested on: Escherichia coli CSH(RE45); conditions: 37° C., 20 hours
Description: (§1) The agent for preventing and treating bacterial infections was tested for in vitro anti-bacterial activity by the following two-fold agar plate dilution method. Each test strain was incubated for 20 hours in a bouillon for measuring sensitivity to obtain a test culture (containing about […]). Portions of sensitivity measuring agar medium containing varying concentrations of the antibacterial agent were each innoculated with a 0.005 ml portion of the culture, followed by incubation at 37° C. for 20 hours. The minimum growth inhibitory concentration (MIC) in μg/ml was then determined.
(§2) MIC=minimum inhibitory concentration

Proteus mirabilis = tested on: Proteus mirabilis
Description: as §1, §2

[2] = tested on: Escherichia coli NIHJ-JC2; conditions: Escherichia coli NIHJ-JC2, agar dilution, 37° C., 20 hours
Description: as §1, §2

Pseudomonas cepacia = conditions: 37° C., 20 hours
Description: as §1, §2

Serratia marcescens = tested on: Serratia marcescens
Description: as §1, §2

Pseudomonas aeruginosa = tested on: Pseudomonas aeruginosa
Description: as §1, §2

[3] = tested on: Staphylococcus aureus 209P
Description: as §1, §2

Proteus vulgaris = tested on: Proteus vulgaris
Description: as §1, §2

Klebsiella pneumoniae = tested on: Klebsiella pneumoniae
Description: as §1, §2

[4] = agar dilution, 37° C., 20 hours, read-out: MIC
[5] = Burkholderia cepacia, read-out: MIC
[6] = Staphylococcus aureus 209P, agar dilution, 37° C., 20 hours, read-out: MIC
[7] = agar dilution, 37° C., 20 hours

Compound	MIC ([1]; read-out: MIC) [µg/mL]	MIC (Proteus mirabilis; [4]) [µg/mL]	MIC ([2]; NIHJJC2, read-out: MIC) [µg/mL]	MIC (Pseudomonas cepacia; [5]) [µg/mL]	MIC (Serratia marcescens; 20 h) [µg/mL]	MIC (Proteus vulgaris; [4]) [µg/mL]	MIC (Klebsiella pneumoniae; 20 h) [µg/mL]	MIC (Serratia marcescens; [4]) [µg/mL]	MIC (Pseudomonas aeruginosa; [4]) [µg/mL]	MIC [3, 6] [µg/mL]	MIC (Proteus mirabilis; 20 h) [µg/mL]	MIC (Proteus vulgaris; 20 h) [µg/mL]	further results
Cn1c[n+](CC2=C(C(=O)[O-])N3C(=O)C(NC(=O)/C(=N\OC(C)(C)C(=O)O)c4csc(N)n4)C3SC2)c2ccccc21 (stereo not drawn) [L, 7-{2-(2-aminothiazole-4-yl)-2-[potassium(2,2-dimethylacetate)oxyimino]acetamide}-3-(benz-3-N-methyl-1-imidazoliomethyl)-3-cephem-4-carboxylate]	0.2	0.2	0.2	6.25	0.78	0.2	0.78	–	–	–	–	–	MIC (Pseudomonas aeruginosa; 20 h): 3.13 µg/mL; MIC ([3]; Staphylococcus aureus, 209P, 20 h): 1.56 µg/mL
C=CCn1cc[n+](CC2=C(C(=O)[O-])N3C(=O)C(NC(=O)/C(=N\OC(C)(C)C(=O)O)c4csc(N)n4)C3SC2)c1 (stereo not drawn) [H, 7-{2-(2-aminothiazole-4-yl)-2-[potassium(2,2-dimethylacetate)oxyimino]acetamide}-3-[3-(2-propenyl)-1-imidazoliomethyl]-3-cephem-4-carboxylate]	0.1	0.2	0.2	6.25	–	0.1	–	0.78	3.12	5	–	–	MIC (Klebsiella pneumoniae; [4]): 0.78 µg/mL
C=Cn1cc[n+](CC2=C(C(=O)[O-])N3C(=O)C(NC(=O)/C(=N\OC(C)(C)C(=O)O)c4csc(N)n4)C3SC2)c1 (stereo not drawn) [Compound M, 7-{2-(2-aminothiazole-4-yl)-2-[potassium(2,2-dimethylacetate)oxyimino]acetamide}-3-(3-vinyl-1-imidazoliomethyl)-3-cephem-4-carboxylate]	0.1	–	0.2	12.5	0.78	–	0.39	–	–	6.25	0.1	0.1	MIC (Pseudomonas aeruginosa; 20 h): 3.13 µg/mL
CC(C)(O/N=C(\C(=O)NC1C(=O)N2C(C(=O)[O-])=C(C[n+]3ccn(-c4ccc(O)cc4)c3)CSC12)c1csc(N)n1)C(=O)O (stereo not drawn) [O, 7-{2-(2-aminothiazole-4-yl)-2-[potassium(2,2-dimethylacetate)oxyimino]acetamide}-3-[3-(4-hydroxyphenyl)-1-imidazoliomethyl]-3-cephem-4-carboxylate]	0.1	–	0.2	25	0.78	–	0.78	–	6.25	6.25	0.2	0.1	–
C=CCn1cc[n+](CC2=C(C(=O)[O-])N3C(=O)C(NC(=O)/C(=N\OC)c4csc(N)n4)C3SC2)c1 (stereo not drawn) [F, 7-[2-(2-aminothiazole-4-yl)-2-methoxyiminoacetamide]-3-[3-(2-propenyl)-1-imidazoliomethyl]-3-cephem-4-carboxylate]	0.2 (≈ 0.397 µM)	–	0.1 (≈ 0.199 µM)	50 (≈ 99.3 µM)	–	–	0.1 (≈ 0.199 µM)	0.78 (≈ 1.55 µM)	25 (≈ 49.6 µM)	6.25 (≈ 12.4 µM)	0.39 (≈ 0.774 µM)	0.39 (≈ 0.774 µM)	–
C=CCO/N=C(\C(=O)NC1C(=O)N2C(C(=O)[O-])=C(C[n+]3ccn(-c4ccc(O)cc4)c3)CSC12)c1csc(N)n1 (stereo not drawn) [C, 7-[2-(2-aminothiazole-4-yl)-2-(2-propenyloxyimino)acetamide]-3-[3-(4-hydroxyphenyl)-1-imidazoliomethyl]-3-cephem-4-carboxylate]	0.2 (≈ 0.344 µM)	0.78 (≈ 1.34 µM)	0.39 (≈ 0.671 µM)	6.25 (≈ 10.7 µM)	–	0.78 (≈ 1.34 µM)	–	3.12 (≈ 5.36 µM)	12.5 (≈ 21.5 µM)	0.39 (≈ 0.671 µM)	–	–	MIC (Klebsiella pneumoniae; [4]): 0.78 µg/mL (≈ 1.34 µM)
C#CCn1cc[n+](CC2=C(C(=O)[O-])N3C(=O)C(NC(=O)/C(=N\OC)c4csc(N)n4)C3SC2)c1 (stereo not drawn) [Compound G, 7-[2-(2-aminothiazole-4-yl)-2-methoxyiminoacetamide]-3-[3-(2-propynyl)-1-imidazoliomethyl]-3-cephem-4-carboxylate]	0.2 (≈ 0.399 µM)	–	0.05 (≈ 0.0997 µM)	25 (≈ 49.8 µM)	1.56 (≈ 3.11 µM)	–	0.1 (≈ 0.199 µM)	–	6.25 (≈ 12.5 µM)	0.78 (≈ 1.56 µM)	0.2 (≈ 0.399 µM)	0.2 (≈ 0.399 µM)	–
C=CCCn1c[n+](CC2=C(C(=O)[O-])N3C(=O)C(NC(=O)/C(=N\OC(C)(C)C(=O)O)c4csc(N)n4)C3SC2)c2ccccc21 (stereo not drawn) [Compound S, 7-{2-(2-aminothiazole-4-yl)-2-[potassium(2,2-dimethylacetate)oxyimino]acetamide}-3-[benz-3-N-(3-butenyl)-1-imidazoliomethyl]-3-cephem-4-carboxylate]	0.39	–	0.78	25	3.13	–	3.13	–	6.25	0.78	3.13	0.78	–
7-{2-(2-aminothiazole-4-yl)-2-[potassium(2,2-dimethylacetate)oxyimino]acetamide}-3-(3-acetophenyl-1-imidazoliomethyl)-3-cephem-4-carboxylate	–	–	–	–	–	–	–	–	–	–	–	–	MIC [1]: 0.2 µg/mL; MIC (Proteus mirabilis; [7]): 0.2 µg/mL; MIC [2]: 0.39 µg/mL; MIC (Pseudomonas cepacia): 25 µg/mL; MIC (Serratia marcescens; [7]): 1.56 µg/mL; MIC (Pseudomonas aeruginosa; [7]): 12.5 µg/mL; MIC ([3]; Staphylococcus aureus 209P, agar dilution, 37° C., 20 hours): 6.25 µg/mL; MIC (Proteus vulgaris; [7]): 0.2 µg/mL; MIC (Klebsiella pneumoniae; [7]): 1.56 µg/mL
